The test system of series [1] is Plasmodium berghei. Briefly: Antimalarial activity against trophozoite-induced Plasmodium berghei infected in mouse assessed as daily dose required to suppression of 90% parasite infection administered with diet for 6 days. In kind it is functional.
The test system of series [2] is Plasmodium berghei. Briefly: Antimalarial activity against Plasmodium berghei infected in mouse assessed as disease cure from parasite infection at 40 mg/kg, sc administered 72 hrs after infection. In kind it is functional, organism-based. Also noted: dose 40 mg/kg.
The subject of series [3] is Plasmodium berghei. Briefly: Antimalarial activity against Plasmodium berghei infected in mouse assessed as increase in mean survival days of host at 1.25 mg/kg, sc administered 72 hrs after infection relative to control. In kind it is functional. The settings on record: route subcutaneous.
Series [4] relates to Plasmodium gallinaceum. Briefly: Antimalarial activity against sporozoite-induced Plasmodium gallinaceum infected in white leghorn chicken assessed as disease cure from parasite infection at 20 mg/kg, sc administered 72 hrs after infection. In kind it is functional, organism-based. Also noted: dose 20 mg/kg.
Series [5] concerns Plasmodium gallinaceum. The series can be described thus: Antimalarial activity against sporozoite-induced Plasmodium gallinaceum infected in white leghorn chicken assessed as disease cure from parasite infection at 160 mg/kg, sc administered 72 hrs after infection. In kind it is functional, organism-based. Also noted: dose 160 mg/kg.
Series [6] concerns Plasmodium berghei. Briefly: Antimalarial activity against Plasmodium berghei infected in mouse assessed as increase in mean survival days of host at 2.5 mg/kg, sc administered 72 hrs after infection relative to control. In kind it is functional. The conditions noted are these: route subcutaneous.
In series [7] the test system is Plasmodium gallinaceum. The series can be described thus: Antimalarial activity against sporozoite-induced Plasmodium gallinaceum infected in white leghorn chicken assessed as disease cure from parasite infection at 80 mg/kg, sc administered 72 hrs after infection. In kind it is functional, organism-based. Details: dose 80 mg/kg.
Series [8] concerns Plasmodium berghei. Briefly: Antimalarial activity against Plasmodium berghei infected in mouse assessed as increase in mean survival days of host at 5 mg/kg, sc administered 72 hrs after infection relative to control. In kind it is functional. The settings on record: route subcutaneous.
For series [9], the system named is Plasmodium berghei. Briefly: Antimalarial activity against Plasmodium berghei infected in mouse assessed as disease cure from parasite infection at 160 mg/kg, sc administered 72 hrs after infection. In kind it is functional, organism-based. Also noted: dose 160 mg/kg.
In series [10] the test system is Plasmodium gallinaceum. The series can be described thus: Antimalarial activity against sporozoite-induced Plasmodium gallinaceum infected in white leghorn chicken assessed as disease cure from parasite infection at 10 mg/kg, sc administered 72 hrs after infection. In kind it is functional, organism-based. Details: dose 10 mg/kg.
Series [11] has as its system Plasmodium gallinaceum. The series can be described thus: Antimalarial activity against sporozoite-induced Plasmodium gallinaceum infected in white leghorn chicken assessed as disease cure from parasite infection at 40 mg/kg, sc administered 72 hrs after infection. In kind it is functional, organism-based. Also noted: dose 40 mg/kg.
In series [12] the test system is Plasmodium berghei. The series can be described thus: Antimalarial activity against Plasmodium berghei infected in mouse assessed as disease cure from parasite infection at 320 mg/kg, sc administered 72 hrs after infection. In kind it is functional, organism-based. Also noted: dose 320 mg/kg.
The subject of series [13] is Mus musculus. The series can be described thus: Toxicity in Plasmodium berghei infected mouse assessed as mortality at 640 mg/kg, sc administered 72 hrs after infection measured after 2 to 5 days. Details: dose 640 mg/kg, route subcutaneous. The settings on record: in vivo. In kind it is organism-based.
Series [14] relates to Plasmodium berghei. Briefly: Antimalarial activity against Plasmodium berghei infected in mouse assessed as increase in mean survival days of host at 10 mg/kg, sc administered 72 hrs after infection relative to control. The settings on record: route subcutaneous. In kind it is functional.
In series [15] the test system is Plasmodium gallinaceum. The series can be described thus: Antimalarial activity against sporozoite-induced Plasmodium gallinaceum infected in white leghorn chicken assessed as disease cure from parasite infection at 320 mg/kg, sc administered 72 hrs after infection. In kind it is functional, organism-based. Also noted: dose 320 mg/kg.
In series [16] the test system is Plasmodium berghei. The series can be described thus: Antimalarial activity against Plasmodium berghei infected in mouse assessed as disease cure from parasite infection at 80 mg/kg, sc administered 72 hrs after infection. In kind it is functional, organism-based. Details: dose 80 mg/kg.
Series [17] relates to Plasmodium berghei. Briefly: Antimalarial activity against Plasmodium berghei infected in mouse assessed as increase in mean survival days of host at 20 mg/kg, sc administered 72 hrs after infection relative to control. In kind it is functional. The conditions noted are these: route subcutaneous.
In series [18] the test system is Gallus gallus. Briefly: Toxicity in sporozoite-induced Plasmodium gallinaceum infected white leghorn chicken assessed as mortality at 320 mg/kg, sc administered 72 hrs after infection measured up to 6 days. In kind it is organism-based. Details: dose 320 mg/kg, route subcutaneous. The settings on record: in vivo.
Series [19] concerns Mus musculus. The series can be described thus: Toxicity in Plasmodium berghei infected mouse assessed as mortality at 320 mg/kg, sc administered 72 hrs after infection measured after 2 to 5 days. In kind it is organism-based. Also noted: dose 320 mg/kg, route subcutaneous. The settings on record: in vivo.
For series [20], the system named is Plasmodium berghei. The series can be described thus: Ratio of quinine hydrochloride SD90 to compound SD90 for trophozoite-induced Plasmodium berghei infected in mouse assessed as daily dose required to suppression of 90% parasite infection administered with diet for 6 days. In kind it is functional.
The subject of series [21] is Plasmodium berghei. Briefly: Antimalarial activity against Plasmodium berghei infected in mouse assessed as disease cure from parasite infection at 640 mg/kg, sc administered 72 hrs after infection. In kind it is functional, organism-based. Also noted: dose 640 mg/kg.
The subject of series [22] is Plasmodium gallinaceum. Briefly: Antimalarial activity against sporozoite-induced Plasmodium gallinaceum infected in white leghorn chicken assessed as increase in mean survival days of host at 240 mg/kg, sc administered 72 hrs after infection relative to control. In kind it is functional. The conditions noted are these: route subcutaneous.
Series [23] relates to Plasmodium berghei. Briefly: Antimalarial activity against Plasmodium berghei infected in mouse assessed as increase in mean survival days of host at 80 mg/kg, sc administered 72 hrs after infection relative to control. In kind it is functional. The conditions noted are these: route subcutaneous.
In a further series the test system is Escherichia coli. The series can be described thus: Antibacterial activity against Escherichia coli Vogel by gradient plate test. In kind it is functional.
Another series deals with Enterococcus faecalis. Briefly: Antibacterial activity against Streptococcus faecalis MGH-2 by gradient plate test. In kind it is functional.
Series [24] relates to Plasmodium gallinaceum. Briefly: Antimalarial activity against trophozoite-induced Plasmodium gallinaceum infected in white leghorn chicken assessed as increase in mean survival days of host at 160 mg/kg, sc administered 72 hrs after infection relative to control. The conditions noted are these: route subcutaneous. In kind it is functional.
Series [25] has as its system Plasmodium gallinaceum. Briefly: Antimalarial activity against trophozoite-induced Plasmodium gallinaceum infected in white leghorn chicken assessed as increase in mean survival days of host at 20 mg/kg, sc administered 72 hrs after infection relative to control. In kind it is functional. The settings on record: route subcutaneous.
In series [26] the test system is Plasmodium gallinaceum. The series can be described thus: Antimalarial activity against trophozoite-induced Plasmodium gallinaceum infected in white leghorn chicken assessed as increase in mean survival days of host at 40 mg/kg, sc administered 72 hrs after infection relative to control. The settings on record: route subcutaneous. In kind it is functional.
Series [27] relates to Gallus gallus. Briefly: Toxicity in sporozoite-induced Plasmodium gallinaceum infected white leghorn chicken assessed as mortality at 240 mg/kg, sc administered 72 hrs after infection measured up to 6 days. The settings on record: in vivo. Details: dose 240 mg/kg, route subcutaneous. In kind it is organism-based.
Series [28] concerns Plasmodium gallinaceum. The series can be described thus: Antimalarial activity against trophozoite-induced Plasmodium gallinaceum infected in white leghorn chicken assessed as increase in mean survival days of host at 10 mg/kg, sc administered 72 hrs after infection relative to control. In kind it is functional. The settings on record: route subcutaneous.
Series [29] relates to Plasmodium gallinaceum. Briefly: Antimalarial activity against trophozoite-induced Plasmodium gallinaceum infected in white leghorn chicken assessed as increase in mean survival days of host at 80 mg/kg, sc administered 72 hrs after infection relative to control. In kind it is functional. The settings on record: route subcutaneous.
The subject of series [30] is Plasmodium berghei. The series can be described thus: Antimalarial activity against Plasmodium berghei infected in mouse assessed as increase in mean survival days of host at 160 mg/kg, sc administered 72 hrs after infection relative to control. In kind it is functional. The settings on record: route subcutaneous.
In series [31] the test system is Staphylococcus aureus. The series can be described thus: Antibacterial activity against Staphylococcus aureus UC-96 by gradient plate test. In kind it is functional.
For series [32], the system named is Plasmodium gallinaceum. Briefly: Antimalarial activity against sporozoite-induced Plasmodium gallinaceum infected in white leghorn chicken assessed as increase in mean survival days of host at 120 mg/kg, sc administered 72 hrs after infection relative to control. The settings on record: route subcutaneous. In kind it is functional.
In another series the test system is Shigella sonnei. The series can be described thus: Antibacterial activity against Shigella sonnei C-10 by gradient plate test. In kind it is functional.
The subject of series [33] is Plasmodium berghei. Briefly: Antimalarial activity against Plasmodium berghei infected in mouse assessed as increase in mean survival days of host at 40 mg/kg, sc administered 72 hrs after infection relative to control. In kind it is functional. The settings on record: route subcutaneous.
In series [34] the test system is Plasmodium berghei. The series can be described thus: Antimalarial activity against Plasmodium berghei infected in mouse assessed as increase in mean survival days of host at 320 mg/kg, sc administered 72 hrs after infection relative to control. In kind it is functional. The settings on record: route subcutaneous.
The subject of a further series is Pseudomonas aeruginosa. The series can be described thus: Antibacterial activity against Pseudomonas aeruginosa 28 by gradient plate test. In kind it is functional.
In series [35] the test system is Gallus gallus. Briefly: Toxicity in sporozoite-induced Plasmodium gallinaceum infected white leghorn chicken assessed as mortality at 480 mg/kg, sc administered 72 hrs after infection measured up to 6 days. In kind it is organism-based. Details: dose 480 mg/kg, route subcutaneous. The conditions noted are these: in vivo.
The subject of series [36] is Plasmodium gallinaceum. Briefly: Antimalarial activity against trophozoite-induced Plasmodium gallinaceum infected in white leghorn chicken assessed as increase in mean survival days of host at 320 mg/kg, sc administered 72 hrs after infection relative to control. In kind it is functional. The settings on record: route subcutaneous.
Series [37] relates to Staphylococcus aureus. The series can be described thus: Antibacterial activity against drug-resistant Staphylococcus aureus S18713 by gradient plate test. In kind it is functional.

Active and inactive are the calls of the source. The rule behind the calls is not given here. Where only a bound is given, the exact number is not on record here.

With `CCc1nc(N)nc(N)c1-c1ccc(Cl)cc1` [PYRIMETHAMINE], the SD90 with Plasmodium berghei [1] is recorded as 0.28 mg/kg/day. In addition, the outcome with Plasmodium berghei [2], in the series on Plasmodium gallinaceum [4], with Plasmodium gallinaceum [5], in the series on Plasmodium gallinaceum [7], with Plasmodium berghei [9] and in the series on Plasmodium gallinaceum [10] was Active. Further, the outcome in the series with Plasmodium gallinaceum [11], in the series with Plasmodium berghei [12], with Plasmodium gallinaceum [15], in the series with Plasmodium berghei [16] and with Plasmodium berghei [21] was Active. Moreover, the MST in the series with Plasmodium berghei [3] was 3.1 days; with Plasmodium berghei [6], 4.7 days; in the series on Plasmodium berghei [8], 5.3 days; in the series on Plasmodium berghei [14], 6.1 days; with Plasmodium berghei [17] it was 7.7 days. Also, the Activity entry in the series with Mus musculus [13], in the series on Gallus gallus [18] and in the series with Mus musculus [19] was “Toxic” in each case. Further, in the series on Plasmodium berghei [20], the Ratio came to 270.

`Nc1nc(N)c2cc(Sc3ccccc3)ccc2n1`: the SD90 in the series on Plasmodium berghei [1] is reported as 8.2 mg/kg/day. Besides, the MST in the series with Plasmodium gallinaceum [22] was 1.6 days; in the series with Plasmodium berghei [23], 9.7 days; with Plasmodium gallinaceum [24], 7.8 days; in the series on Plasmodium berghei [8], 1.1 days; in the series with Plasmodium gallinaceum [25], 5.6 days; with Plasmodium gallinaceum [26], 6.2 days. Moreover, the MST is 0 days in the series on Plasmodium gallinaceum [28]; 6.4 days in the series on Plasmodium gallinaceum [29]; 14 days in the series on Plasmodium berghei [30]; 3.3 days in the series with Plasmodium berghei [14]; 4.7 days in the series with Plasmodium berghei [17]; 2.4 days with Plasmodium gallinaceum [32]. The MST in the series on Plasmodium berghei [33] was 6.3 days; with Plasmodium berghei [34], 14.7 days; in the series on Plasmodium gallinaceum [36], 11.4 days. The MIC is less than 0.25 µg/mL in the series on Escherichia coli; less than 0.25 µg/mL in the series on Enterococcus faecalis; less than 0.25 µg/mL with Staphylococcus aureus [31]; less than 0.25 µg/mL against Shigella sonnei; more than 25 µg/mL in the series with Pseudomonas aeruginosa; less than 0.25 µg/mL against Staphylococcus aureus [37]. Moreover, the outcome with Plasmodium berghei [9] and in the series with Plasmodium berghei [12] was Active. The Activity entry in the series on Gallus gallus [27] and in the series with Gallus gallus [35] was “Toxic” each time. Besides, in the series with Plasmodium berghei [20], the Ratio amounted to 9.1.
